Test system: CVD (CHD or stroke)
Test: CARE: SNP by pravastatin treatment interaction, logistic regression (synergy index), CVD endpoint
Assay type: in vivo, human
Conditions: for OR (SNP x pravastatin interaction) / OR (synergy index, SNP x pravastatin treatment interaction): CARE; for OR (synergy index), CARE, Prava vs Placebo: CVD endpoint
Description: CARE was a secondary prevention trial and WOSCOPS was a primary prevention trial.
The CHD endpoint was defined in the analyses herein of CARE as a composite endpoint of fatal CHD, definite non-fatal MI, or revascularization, and was defined in the analyses herein of WOSCOPS as a composite endpoint of death from CHD, nonfatal MI, or revascularization. In both the CARE and WOSCOPS analyses herein, the CVD endpoint was defined as a composite endpoint of CHD or stroke. […] Revascularization, which can include percutaneous transluminal coronary angioplasty (PTCA), stent placement, and coronary artery bypass graft (CABG), are medical interventions that indicate the presence of CHD.
Cohort and case-only study designs were used to identify SNPs associated with response to statin treatment.
For each SNP, a logistic regression model having treatment status as the dependent variable and SNP as the independent predictor variable was performed, with terms for age, sex and race included in the model as covariates. The anti-log of the regression coefficient corresponding to the SNP is an estimate of the synergy index (SI) (Davis et al., “Imputing gene-treatment interactions when the genotype distribution is unknown using case-only and putative placebo analyses-a new method for the Genetics of Hypertension Associated Treatment (GenHAT) study”, Statistics in Medicine 23: (2004), pages 2413-2427). The SI is a ratio of odds ratios: for example in the CARE and WOSCOPS studies, the SI represents the factor by which the odds-ratio of statin treatment, compared with placebo, among major homozygous individuals is multiplied by in order to obtain the odds-ratio of treatment vs. placebo among heterozygous individuals; and multiplied by a second time to obtain the odds-ratio of treatment vs. placebo in minor homozygous individuals. […] In a randomized clinical trial, genotype and treatment are independent by design.

## CC[C@H](C)C(=O)O[C@H]1C[C@H](O)C=C2C=C[C@H](C)[C@H](CC[C@@H](O)C[C@@H](O)CC(=O)O)[C@H]21 [Pravastatin, pravastatin]
rs2132242 allele A, ADD model, Imputed
  OR (SNP x pravastatin interaction): 0.7317
rs2132242 allele A, DOM model, Imputed
  OR (SNP x pravastatin interaction): 0.6043
rs2158958 allele A, DOM model, Imputed
  OR (SNP x pravastatin interaction): 0.6617
rs2158961 allele G, DOM model, Imputed
  OR (SNP x pravastatin interaction): 0.6544
rs2163046 allele A, DOM model, Imputed
  OR (SNP x pravastatin interaction): 1.474
rs2180286 allele G, DOM model, Imputed
  OR (SNP x pravastatin interaction): 0.6211
rs2180684 allele A, DOM model, Imputed
  OR (SNP x pravastatin interaction): 1.684
rs2188079 allele C, ADD model, Imputed
  OR (SNP x pravastatin interaction): 1.333
rs2190598 allele T, DOM model, Imputed
  OR (SNP x pravastatin interaction): 0.6617
rs2190600 allele A, DOM model, Imputed
  OR (SNP x pravastatin interaction): 0.6716
rs2224184 allele T, DOM model, Genotyped
  OR (SNP x pravastatin interaction): 0.6357
rs2247066 allele A, DOM model, Imputed
  OR (SNP x pravastatin interaction): 0.6151
rs2248236 allele C, ADD model, Imputed
  OR (SNP x pravastatin interaction): 0.6377
rs2248236 allele C, DOM model, Imputed
  OR (SNP x pravastatin interaction): 0.6049
rs2265733 allele C, ADD model, Imputed
  OR (SNP x pravastatin interaction): 0.6269
rs2265733 allele C, DOM model, Imputed
  OR (SNP x pravastatin interaction): 0.5989
rs2270584 allele A, ADD model, Imputed
  OR (SNP x pravastatin interaction): 0.7437
rs2270584 allele A, DOM model, Imputed
  OR (SNP x pravastatin interaction): 0.5859
rs2270586 allele A, ADD model, Imputed
  OR (SNP x pravastatin interaction): 0.7444
rs2270586 allele A, DOM model, Imputed
  OR (SNP x pravastatin interaction): 0.5879
rs2317057 allele T, ADD model, Imputed
  OR (SNP x pravastatin interaction): 0.7125
rs2322100 allele T, REC model, Genotyped
  OR (SNP x pravastatin interaction): 1.768
rs2322101 allele A, REC model, Imputed
  OR (SNP x pravastatin interaction): 1.764
rs2327929 allele G, REC model, Imputed
  OR (SNP x pravastatin interaction): 1.996
rs2332844 allele A, ADD model, Imputed
  OR (SNP x pravastatin interaction): 1.802
rs2332844 allele A, REC model, Imputed
  OR (SNP x pravastatin interaction): 1.849
rs2349170 allele G, DOM model, Imputed
  OR (SNP x pravastatin interaction): 1.638
rs2356722 allele G, DOM model, Imputed
  OR (SNP x pravastatin interaction): 0.5863
rs2364956 allele T, ADD model, Imputed
  OR (SNP x pravastatin interaction): 1.439
rs2373793 allele G, ADD model, Imputed
  OR (SNP x pravastatin interaction): 1.379
rs2373793 allele G, DOM model, Imputed
  OR (SNP x pravastatin interaction): 1.446
rs2383903 allele G, DOM model, Imputed
  OR (SNP x pravastatin interaction): 0.6249
rs2387945 allele G, DOM model, Imputed
  OR (SNP x pravastatin interaction): 1.587
rs2389863 allele A, DOM model, Imputed
  OR (SNP x pravastatin interaction): 0.6722
rs2389866 allele C, DOM model, Imputed
  OR (SNP x pravastatin interaction): 0.6634
rs2389869 allele C, DOM model, Imputed
  OR (SNP x pravastatin interaction): 0.6634
rs2389870 allele C, DOM model, Genotyped
  OR (SNP x pravastatin interaction): 0.6413
rs16938626 allele G, model DOM, Imputed
  OR (synergy index, SNP x pravastatin treatment interaction): 0.612
rs16964300 allele G, model ADD, Imputed
  OR (synergy index, SNP x pravastatin treatment interaction): 0.6771
rs16964300 allele G, model DOM, Imputed
  OR (synergy index, SNP x pravastatin treatment interaction): 0.7073
rs16986282 allele G, model DOM, Imputed
  OR (synergy index, SNP x pravastatin treatment interaction): 0.3124
rs17007620 allele G, model ADD, Imputed
  OR (synergy index, SNP x pravastatin treatment interaction): 1.421
rs17007620 allele G, model DOM, Imputed
  OR (synergy index, SNP x pravastatin treatment interaction): 1.572
rs17014326 allele G, model DOM, Imputed
  OR (synergy index, SNP x pravastatin treatment interaction): 0.5837
rs17047957 allele C, model DOM, Imputed
  OR (synergy index, SNP x pravastatin treatment interaction): 1.47
rs17073341 allele A, model ADD, Imputed
  OR (synergy index, SNP x pravastatin treatment interaction): 2.568
rs17073341 allele A, model DOM, Imputed
  OR (synergy index, SNP x pravastatin treatment interaction): 2.569
rs17138702 allele G, model ADD, Imputed
  OR (synergy index, SNP x pravastatin treatment interaction): 0.5527
rs17189710 allele T, model ADD, Imputed
  OR (synergy index, SNP x pravastatin treatment interaction): 1.359
rs17189710 allele T, model REC, Imputed
  OR (synergy index, SNP x pravastatin treatment interaction): 1.896
rs17310176 allele T, model ADD, Imputed
  OR (synergy index, SNP x pravastatin treatment interaction): 0.6381
rs17310176 allele T, model DOM, Imputed
  OR (synergy index, SNP x pravastatin treatment interaction): 0.5794
rs17358860 allele A, model DOM, Imputed
  OR (synergy index, SNP x pravastatin treatment interaction): 0.6291
rs17370541 allele T, model REC, Imputed
  OR (synergy index, SNP x pravastatin treatment interaction): 2.075
rs17530747 allele T, model DOM, Imputed
  OR (synergy index, SNP x pravastatin treatment interaction): 0.5794
rs17649114 allele C, model DOM, Imputed
  OR (synergy index, SNP x pravastatin treatment interaction): 1.543
rs17766172 allele A, model REC, Imputed
  OR (synergy index, SNP x pravastatin treatment interaction): 0.3869
SNP rs304597 (A1 A, A2 G), rec model, cohort
  OR (synergy index), CARE, Prava vs Placebo: 1.95
SNP rs304601 (A1 A, A2 G), rec model, Caseonly
  OR (synergy index), CARE, Prava vs Placebo: 2.28
SNP rs988146 (A1 G, A2 A), add model, Caseonly
  OR (synergy index), CARE, Prava vs Placebo: 0.66
SNP rs1336400 (A1 A, A2 G), dom model, cohort
  OR (synergy index), CARE, Prava vs Placebo: 1.68
SNP rs1559557 (A1 G, A2 A), add model, Caseonly
  OR (synergy index), CARE, Prava vs Placebo: 1.34
SNP rs1877527 (A1 G, A2 A), add model, Caseonly
  OR (synergy index), CARE, Prava vs Placebo: 0.75
SNP rs2132241 (A1 A, A2 G), add model, Caseonly
  OR (synergy index), CARE, Prava vs Placebo: 0.74
SNP rs2270588 (A1 G, A2 A), add model, Caseonly
  OR (synergy index), CARE, Prava vs Placebo: 0.72
SNP rs3844207 (A1 G, A2 C), add model, cohort
  OR (synergy index), CARE, Prava vs Placebo: 0.73
SNP rs7132840 (A1 T, A2 G), add model, cohort
  OR (synergy index), CARE, Prava vs Placebo: 0.75
SNP rs9325191 (A1 A, A2 C), add model, Caseonly
  OR (synergy index), CARE, Prava vs Placebo: 0.74
SNP rs9346951 (A1 A, A2 G), add model, Caseonly
  OR (synergy index), CARE, Prava vs Placebo: 1.56
SNP rs10787944 (A1 G, A2 A), dom model, Caseonly
  OR (synergy index), CARE, Prava vs Placebo: 1.63
SNP rs10945874 (A1 T, A2 C), add model, cohort
  OR (synergy index), CARE, Prava vs Placebo: 1.72
SNP rs11178579 (A1 T, A2 G), add model, cohort
  OR (synergy index), CARE, Prava vs Placebo: 0.76
SNP rs13103899 (A1 G, A2 A), dom model, cohort
  OR (synergy index), CARE, Prava vs Placebo: 0.70
SNP rs13107334 (A1 G, A2 T), add model, cohort
  OR (synergy index), CARE, Prava vs Placebo: 0.69
SNP rs13121569 (A1 G, A2 A), dom model, Caseonly
  OR (synergy index), CARE, Prava vs Placebo: 0.66
SNP rs17048681 (A1 G, A2 T), add model, cohort
  OR (synergy index), CARE, Prava vs Placebo: 1.26
